From the supplement of paper PMC4858399

Tests used:
Settings in all cases: exposure time 48 h
[1] = tested on: Caenorhabditis elegans N2; assay: AC50 for larval growth inhibition (Hill fit); higher = less potent
How it was run: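 C. elegans N2 L1 larvae, synchronised and plated at 50 per well in 96-well plates, were exposed for 48 h at 20°C to 0.5–200 µM chemical in K-medium with killed OP50 and 1% DMSO. Log-transformed extinction from a COPAS Biosort served as worm size, averaged per well. Wells containing at least 10 worms entered the fit. A constrained Hill fit by weighted genetic-algorithm regression yielded the AC50, censored when out of range.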

[2] = tested on: Caenorhabditis elegans N2; assay: lowest effective concentration for larval growth inhibition (size below effect threshold); higher = less potent
How it was run: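 Each well of a 96-well plate received 50 C. elegans N2 L1 larvae, which grew for 48 h at 20°C in K-medium containing killed bacteria, 1% DMSO and the chemical at 0.5, 1, 5, 10, 50, 100 or 200 µM. A Biosort recorded the extinction of every worm as its size, and these readings were log-transformed and averaged per well. The lowest effective concentration is defined as the first dose at which the plate-adjusted mean size falls below the threshold and stays below it at all higher doses; that threshold is 5.665.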

[3] = tested on: Caenorhabditis elegans N2; assay: mean nematode size ln(EXT) after 48 h, plate-adjusted (DMSO control set to 6) (ln(EXT), control-adjusted); higher = larger nematodes / less growth inhibition
How it was run: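 A growth model removed debris from Biosort extinction readings taken on each worm. These worms were synchronised C. elegans N2 L1 larvae, 50 per well in 4–6 wells per treatment, grown for 48 h at 20°C in K-medium with killed OP50, 1% DMSO and 0.5–200 µM chemical. Readings were natural-logged and averaged by well to give mean size. On each plate, the vehicle control mean was subtracted and 6 was added.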

| Structure (SMILES) | AC50 for larval growth inhibition [1] | lowest effective concentration [2] | mean nematode size ln(EXT) (ln) ([3]; 0.5 µM) | mean nematode size ln(EXT) (ln) ([3]; 1 µM) | mean nematode size ln(EXT) (ln) ([3]; 5 µM) | mean nematode size ln(EXT) (ln) ([3]; 10 µM) | mean nematode size ln(EXT) (ln) ([3]; 50 µM) | mean nematode size ln(EXT) (ln) ([3]; 100 µM) | mean nematode size ln(EXT) (ln) ([3]; 200 µM) |
| --- | --- | --- | --- | --- | --- | --- | --- | --- | --- |
| CC[C@H](NC(=O)c1cc(F)ccc1NS(=O)(=O)c1cccc2cccnc12)c1ccccc1 | 57.4 µM | 10 µM | 5.88 | 5.83 | 5.85 | 5.52 | 4.56 | 4.28 | 3.77 |
| CCOP(=S)(OCC)SCn1c(=O)oc2cc(Cl)ccc21 [Phosalone] | 9.77 µM | 10 µM | 5.76 | 5.7 | 5.97 | 4.73 | 4.26 | 4.06 | 3.72 |
| CCCN(CCC)c1c([N+](=O)[O-])cc(C(F)(F)F)c(N)c1[N+](=O)[O-] [Prodiamine] | > 200 µM | 200 µM | 6.07 | 6.18 | 6.02 | 5.75 | 5.99 | 5.92 | 5.1 |
| c1ccc(NNc2ccccc2)cc1 [1,2-Diphenylhydrazine] | 78.8 µM | 50 µM | 5.81 | 5.72 | 5.71 | 5.69 | 5.22 | 4.11 | 3.42 |
| COC(=O)[C@H]1[C@H]2C[C@@H]3c4[nH]c5cc(OC)ccc5c4CCN3C[C@H]2C[C@@H](OC(=O)c2cc(OC)c(OC)c(OC)c2)[C@@H]1OC [Reserpine] | 12.6 µM | 10 µM | 5.86 | 5.87 | 5.74 | 5.66 | 5.04 | 4.95 | 5.17 |
| CCC(C)c1ccc(O)cc1 (stereo not drawn) [4-(Butan-2-yl)phenol] | 142 µM | 200 µM | 6.03 | 6.09 | 6.07 | 6.08 | 6.05 | 6.02 | 5.52 |
| CC[C@H](C)[C@H]1O[C@]2(C=C[C@@H]1C)C[C@@H]1C[C@@H](C/C=C(\C)[C@@H](O[C@H]3C[C@H](OC)[C@@H](O[C@H]4C[C@H](OC)[C@@H](O)[C@H](C)O4)[C@H](C)O3)[C@@H](C)/C=C/C=C3\CO[C@@H]4[C@H](O)C(C)=C[C@@H](C(=O)O1)[C@]34O)O2.CO[C@H]1C[C@H](O[C@H]2[C@H](C)O[C@@H](O[C@@H]3/C(C)=C/C[C@@H]4C[C@@H](C[C@]5(C=C[C@H](C)[C@@H](C(C)C)O5)O4)OC(=O)[C@@H]4C=C(C)[C@@H](O)[C@H]5OC/C(=C\C=C\[C@@H]3C)[C@]54O)C[C@@H]2OC)O[C@@H](C)[C@@H]1O [Abamectin] | < 0.5 µM | ≤ 0.5 µM | 3.68 | 3.31 | 3.37 | 3.26 | 3.38 | 3.35 | 3.24 |
| CC(c1ccc(O)cc1)(c1ccc(O)cc1)c1ccc(O)cc1 [4,4’,4"-Ethane-1,1,1-triyltriphenol] | 79.3 µM | 100 µM | 5.76 | 6.01 | 5.91 | 5.91 | 5.87 | 5.39 | 5.19 |
| CCCOc1nn(C(=O)NS(=O)(=O)c2ccccc2C(=O)OC)c(=O)n1C [Propoxycarbazone-sodium] | > 200 µM | 200 µM | 5.79 | 5.97 | 6.22 | 6.16 | 5.99 | 5.96 | 5.38 |
| CC1COC(Cn2cncn2)(c2ccc(Oc3ccc(Cl)cc3)cc2Cl)O1 (stereo not drawn) [Difenoconazole] | 1.84 µM | 5 µM | 4.06 | 5.79 | 3.52 | 5.15 | 3.59 | 3.58 | 3.51 |
| N#Cc1c(Cl)c(Cl)c(Cl)c(C#N)c1Cl [Chlorothalonil] | 193 µM | 200 µM | 5.66 | 5.94 | 5.95 | 5.95 | 5.88 | 5.85 | 4.4 |
| C#CC(C)(C)NC(=O)c1cc(Cl)cc(Cl)c1 [Propyzamide] | > 200 µM | 200 µM | 5.98 | 5.91 | 5.98 | 6.01 | 5.92 | 5.91 | 5.63 |
| Nc1ccc(S(=O)(=O)c2ccc(N)cc2)cc1 [4-Aminophenyl sulfone] | > 200 µM | 200 µM | 5.93 | 5.92 | 5.94 | 5.86 | 5.83 | 5.8 | 5.56 |
| O=C(N[C@H](c1ccccc1)[C@@H]1CN2CCC1CC2)c1c(Cl)ccc(C(F)(F)F)c1Cl | 171 µM | 10 µM | 5.84 | 5.83 | 5.78 | 5.64 | 5.61 | 5.09 | 4.34 |
| O=C(O)c1ccc([N+](=O)[O-])cc1 [4-Nitrobenzoic acid] | > 200 µM | 200 µM | 6 | 5.57 | 5.86 | 5.85 | 5.77 | 5.91 | 5.53 |
| CC(C)(C)OOC(C)(C)C [Di-tert-butyl peroxide] | > 200 µM | 200 µM | 5.88 | 5.88 | 5.96 | 5.83 | 5.59 | 5.79 | 5.31 |
| CC(C)COC(=O)c1ccccc1C(=O)OCC(C)C [Diisobutyl phthalate] | 96.3 µM | 100 µM | 5.93 | 5.94 | 5.9 | 5.95 | 6.12 | 5.58 | 5.43 |
